This is an account of results in US7179597B2, “Genetic diagnosis for QT prolongation related adverse drug reactions” (Georgetown University, priority 2000, dated 2007).

“Also recorded” adds a separate entry of the source. Read-outs that look alike come from different tables or passages of the source.

Data set [1] has as its system cultured neonatal rat cardiomyocytes. As to the kind of experiment: Spontaneous beating rate of cultured neonatal rat cardiomyocytes. In kind it is cell-based. Also on record: Reduction in beating rate / Maximum inhibition of beating activity, drug alone: dose or concentration left out as unconfirmed. The text has this: Delayed rectifier potassium channels are important components of cardiac repolarization. There are two major delayed rectifier potassium currents, IKr (rapid component) and IKs (slow component). Drugs that block these currents, particularly IKr, slow cardiac repolarization and increase the risk of developing potentially fatal cardiac arrhythmias such as Torsades de Pointes. Moreover, mutations in the genes encoding for delayed rectifier potassium channel proteins have been linked to long QT syndrome, a condition seen in patients at high risk for developing Torsades de Pointes cardiac arrhythmias and sudden death. […] Recently, however, a new compound, chromanol 293B, has been reported to be a relatively selective blocker of IKs (Busch et al., Pflug. Arch. 432: 1094–6 (1996)). In the present report, we have tested this compound using spontaneously beating cultures of neonatal rat cardiomyocytes.
In addition to the different electrophysiological properties of IKr versus IKs that have been described by others, these currents can be distinguished pharmacologically (Sanguinetti et al., J. Gen. Physiol. 96: 195–215 (1990)). […] To determine if pharmacological blockade of delayed rectifier potassium currents influences the spontaneous beating rate of cultured neonatal rat cardiomyocytes, a dose-response curve was generated for chromanol 293B.

The test system of the next data set is IKs. The settings on record: cited from earlier work.
Another data set concerns the target T1, CYP1A2 (Homo sapiens, UniProt P05177).
T1 sequence (P05177 1-516): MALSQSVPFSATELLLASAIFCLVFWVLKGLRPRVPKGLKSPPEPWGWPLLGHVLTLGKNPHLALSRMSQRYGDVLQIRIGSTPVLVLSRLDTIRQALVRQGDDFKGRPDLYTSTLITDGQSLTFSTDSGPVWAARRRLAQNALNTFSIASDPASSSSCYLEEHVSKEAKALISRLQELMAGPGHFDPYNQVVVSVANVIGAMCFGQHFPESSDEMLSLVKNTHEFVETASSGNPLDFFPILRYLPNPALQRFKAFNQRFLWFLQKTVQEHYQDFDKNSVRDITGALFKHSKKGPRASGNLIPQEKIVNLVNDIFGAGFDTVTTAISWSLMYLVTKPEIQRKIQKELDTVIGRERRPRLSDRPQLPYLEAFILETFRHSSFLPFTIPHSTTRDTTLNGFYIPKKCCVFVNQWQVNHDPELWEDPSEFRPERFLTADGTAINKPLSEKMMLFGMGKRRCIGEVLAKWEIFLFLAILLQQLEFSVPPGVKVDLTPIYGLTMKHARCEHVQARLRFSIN
The settings on record: Table 3; cited from earlier work.

For data set [2] the following is noted: cited from earlier work.
The conditions of data set [3]: cited from earlier work. The source holds these as a separate data set.
In the next data set the target is CYP2C9 (Homo sapiens, UniProt P11712). The settings on record: Table 3; cited from earlier work.
Sequence of CYP2C9 (P11712 whole entry): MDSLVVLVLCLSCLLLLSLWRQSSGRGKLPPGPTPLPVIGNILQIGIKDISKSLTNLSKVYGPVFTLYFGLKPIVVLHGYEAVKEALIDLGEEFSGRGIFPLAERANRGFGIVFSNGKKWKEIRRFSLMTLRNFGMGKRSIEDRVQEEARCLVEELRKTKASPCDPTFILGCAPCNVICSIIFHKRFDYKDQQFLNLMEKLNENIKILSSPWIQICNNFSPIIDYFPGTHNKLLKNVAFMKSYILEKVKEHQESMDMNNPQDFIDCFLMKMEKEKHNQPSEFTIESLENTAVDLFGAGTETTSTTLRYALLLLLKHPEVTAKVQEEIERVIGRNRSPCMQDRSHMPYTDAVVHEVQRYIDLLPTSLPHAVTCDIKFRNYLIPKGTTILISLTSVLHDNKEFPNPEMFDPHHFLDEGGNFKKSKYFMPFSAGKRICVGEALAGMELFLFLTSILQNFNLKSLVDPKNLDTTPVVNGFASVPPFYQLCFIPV
Another data set has as its target CYP2C19 (Homo sapiens, UniProt P33261). The settings on record: Table 3; cited from earlier work.
For the next data set, the target named is CYP2D6 (Homo sapiens, UniProt P10635). The settings on record: Table 3, cited from earlier work.
Sequence of CYP2D6 (P10635 whole entry): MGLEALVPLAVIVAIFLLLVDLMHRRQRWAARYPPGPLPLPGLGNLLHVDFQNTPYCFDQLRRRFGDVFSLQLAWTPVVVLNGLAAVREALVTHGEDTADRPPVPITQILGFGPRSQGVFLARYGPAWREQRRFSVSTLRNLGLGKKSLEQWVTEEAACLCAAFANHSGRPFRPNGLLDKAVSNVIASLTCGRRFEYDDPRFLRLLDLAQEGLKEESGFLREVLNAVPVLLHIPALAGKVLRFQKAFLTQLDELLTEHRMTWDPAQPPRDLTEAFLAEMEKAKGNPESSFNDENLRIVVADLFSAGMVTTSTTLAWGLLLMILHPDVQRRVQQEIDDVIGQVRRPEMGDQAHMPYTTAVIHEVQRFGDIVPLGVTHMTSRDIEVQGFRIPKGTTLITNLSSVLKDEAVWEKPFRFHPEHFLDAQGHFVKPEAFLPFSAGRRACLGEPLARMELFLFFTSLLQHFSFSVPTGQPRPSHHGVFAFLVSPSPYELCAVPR
The next data set deals with IK1. Put plainly: Whole-cell voltage clamp of inward rectifier IK1 in rabbit ventricular myocytes. Format: cell-based. The conditions noted are these: 5 μmol/L, 5 minutes.
A further data set relates to Ito. Put plainly: Whole-cell voltage clamp of transient outward current Ito in rabbit ventricular myocytes. The conditions noted are these: 5 μmol/L, 5 minutes superfusion. Format: cell-based.
Another data set relates to CYP3A. The conditions noted are these: Table 3; cited from earlier work.
For another data set, the target named is P-gp (Homo sapiens, UniProt P08183). The conditions noted are these: Atadja et al. 1998; cited from earlier work.
Data set [4] concerns rabbit ventricular myocytes. The conditions noted are these: 3.3 μmol/L, about 4–5 min; before drug 341±49 ms; n=16, p>0.05.
The target of the next data set is L-type ICa (Oryctolagus cuniculus, UniProt P15381). The settings on record: 10 μmol/L.
Sequence of L-type ICa (P15381 whole entry, other chains not shown): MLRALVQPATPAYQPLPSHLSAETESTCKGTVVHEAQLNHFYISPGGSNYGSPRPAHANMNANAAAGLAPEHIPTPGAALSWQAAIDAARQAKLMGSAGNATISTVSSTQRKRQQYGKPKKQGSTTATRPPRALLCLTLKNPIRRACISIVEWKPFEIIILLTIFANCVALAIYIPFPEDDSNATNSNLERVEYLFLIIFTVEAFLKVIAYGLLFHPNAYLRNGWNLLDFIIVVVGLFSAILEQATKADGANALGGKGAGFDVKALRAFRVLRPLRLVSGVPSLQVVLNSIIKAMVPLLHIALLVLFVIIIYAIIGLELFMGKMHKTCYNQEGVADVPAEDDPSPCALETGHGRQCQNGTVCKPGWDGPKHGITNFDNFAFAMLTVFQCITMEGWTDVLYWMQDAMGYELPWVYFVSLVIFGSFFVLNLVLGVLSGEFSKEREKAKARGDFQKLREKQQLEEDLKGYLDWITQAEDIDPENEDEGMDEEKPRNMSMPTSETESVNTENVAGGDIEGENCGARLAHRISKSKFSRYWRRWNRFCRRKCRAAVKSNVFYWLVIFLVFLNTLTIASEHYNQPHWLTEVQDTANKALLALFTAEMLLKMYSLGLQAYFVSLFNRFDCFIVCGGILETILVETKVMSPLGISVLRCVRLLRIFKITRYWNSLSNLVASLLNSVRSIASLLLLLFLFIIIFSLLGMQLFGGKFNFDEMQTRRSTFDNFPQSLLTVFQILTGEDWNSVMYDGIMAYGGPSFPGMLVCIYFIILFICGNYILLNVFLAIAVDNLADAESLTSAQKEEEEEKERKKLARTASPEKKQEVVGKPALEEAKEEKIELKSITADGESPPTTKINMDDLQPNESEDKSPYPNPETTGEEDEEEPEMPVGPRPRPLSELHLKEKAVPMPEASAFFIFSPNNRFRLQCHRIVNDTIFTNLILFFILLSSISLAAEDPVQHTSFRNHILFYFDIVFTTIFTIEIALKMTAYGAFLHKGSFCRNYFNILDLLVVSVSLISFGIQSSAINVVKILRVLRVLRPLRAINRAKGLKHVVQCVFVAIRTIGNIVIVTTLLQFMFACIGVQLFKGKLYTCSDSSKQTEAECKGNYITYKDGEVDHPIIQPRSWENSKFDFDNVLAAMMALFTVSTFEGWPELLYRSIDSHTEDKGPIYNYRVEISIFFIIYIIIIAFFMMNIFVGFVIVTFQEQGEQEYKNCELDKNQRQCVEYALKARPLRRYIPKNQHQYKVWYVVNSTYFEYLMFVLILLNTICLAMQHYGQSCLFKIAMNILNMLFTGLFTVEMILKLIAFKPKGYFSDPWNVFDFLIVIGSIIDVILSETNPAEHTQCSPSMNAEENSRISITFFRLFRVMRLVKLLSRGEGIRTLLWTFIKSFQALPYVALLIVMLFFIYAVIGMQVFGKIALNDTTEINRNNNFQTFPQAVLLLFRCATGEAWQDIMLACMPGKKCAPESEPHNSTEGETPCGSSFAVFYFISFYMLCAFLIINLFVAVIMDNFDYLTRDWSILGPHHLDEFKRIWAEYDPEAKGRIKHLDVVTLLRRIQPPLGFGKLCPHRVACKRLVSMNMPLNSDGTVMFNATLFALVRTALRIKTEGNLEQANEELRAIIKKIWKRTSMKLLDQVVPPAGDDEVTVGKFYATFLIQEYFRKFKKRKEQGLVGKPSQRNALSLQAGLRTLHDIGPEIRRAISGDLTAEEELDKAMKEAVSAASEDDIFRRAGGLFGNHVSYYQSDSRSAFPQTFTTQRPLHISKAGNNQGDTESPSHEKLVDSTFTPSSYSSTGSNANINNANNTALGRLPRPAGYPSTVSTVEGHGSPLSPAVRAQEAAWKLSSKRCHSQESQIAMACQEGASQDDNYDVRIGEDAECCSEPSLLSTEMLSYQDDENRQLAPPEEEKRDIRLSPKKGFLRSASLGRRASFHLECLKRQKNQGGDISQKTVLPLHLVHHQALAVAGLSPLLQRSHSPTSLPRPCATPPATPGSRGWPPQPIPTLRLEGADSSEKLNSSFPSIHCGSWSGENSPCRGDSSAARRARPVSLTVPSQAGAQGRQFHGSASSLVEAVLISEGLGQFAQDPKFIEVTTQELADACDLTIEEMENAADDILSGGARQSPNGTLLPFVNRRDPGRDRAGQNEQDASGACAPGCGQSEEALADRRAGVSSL
Sequence of L-type ICa (P13806 27-1106 partner, other chains not shown): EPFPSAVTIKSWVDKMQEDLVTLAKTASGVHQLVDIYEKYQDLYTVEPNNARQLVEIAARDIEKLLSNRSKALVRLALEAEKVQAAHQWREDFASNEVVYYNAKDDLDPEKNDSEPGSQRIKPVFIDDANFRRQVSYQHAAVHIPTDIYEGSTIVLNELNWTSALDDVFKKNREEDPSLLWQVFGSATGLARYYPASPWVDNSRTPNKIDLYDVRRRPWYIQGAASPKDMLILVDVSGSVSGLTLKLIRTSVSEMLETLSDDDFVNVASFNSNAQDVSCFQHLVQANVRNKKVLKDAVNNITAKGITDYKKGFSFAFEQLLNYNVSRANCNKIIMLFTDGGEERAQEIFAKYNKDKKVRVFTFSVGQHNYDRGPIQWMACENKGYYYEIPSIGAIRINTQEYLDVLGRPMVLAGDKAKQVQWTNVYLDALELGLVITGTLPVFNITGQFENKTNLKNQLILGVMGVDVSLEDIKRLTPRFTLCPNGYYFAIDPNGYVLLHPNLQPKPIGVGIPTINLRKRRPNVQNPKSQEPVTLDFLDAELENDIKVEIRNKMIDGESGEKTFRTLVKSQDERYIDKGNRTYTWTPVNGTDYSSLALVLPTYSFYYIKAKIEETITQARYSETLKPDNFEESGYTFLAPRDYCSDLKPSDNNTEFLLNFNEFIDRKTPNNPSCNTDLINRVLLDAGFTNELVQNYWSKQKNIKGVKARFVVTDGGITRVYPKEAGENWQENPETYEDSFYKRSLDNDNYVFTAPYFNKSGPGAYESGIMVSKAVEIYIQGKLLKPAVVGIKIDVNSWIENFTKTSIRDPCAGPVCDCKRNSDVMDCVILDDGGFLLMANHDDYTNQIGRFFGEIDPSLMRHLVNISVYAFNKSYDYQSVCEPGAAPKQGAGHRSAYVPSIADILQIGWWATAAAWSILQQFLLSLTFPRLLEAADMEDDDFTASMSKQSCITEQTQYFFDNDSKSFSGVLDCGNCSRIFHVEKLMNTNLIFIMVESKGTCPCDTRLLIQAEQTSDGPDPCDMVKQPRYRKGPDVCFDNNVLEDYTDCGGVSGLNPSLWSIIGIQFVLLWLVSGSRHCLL
For another data set, the target named is T2, IKr (Oryctolagus cuniculus, UniProt Q8WNY2).
T2 sequence (Q8WNY2 1-1161): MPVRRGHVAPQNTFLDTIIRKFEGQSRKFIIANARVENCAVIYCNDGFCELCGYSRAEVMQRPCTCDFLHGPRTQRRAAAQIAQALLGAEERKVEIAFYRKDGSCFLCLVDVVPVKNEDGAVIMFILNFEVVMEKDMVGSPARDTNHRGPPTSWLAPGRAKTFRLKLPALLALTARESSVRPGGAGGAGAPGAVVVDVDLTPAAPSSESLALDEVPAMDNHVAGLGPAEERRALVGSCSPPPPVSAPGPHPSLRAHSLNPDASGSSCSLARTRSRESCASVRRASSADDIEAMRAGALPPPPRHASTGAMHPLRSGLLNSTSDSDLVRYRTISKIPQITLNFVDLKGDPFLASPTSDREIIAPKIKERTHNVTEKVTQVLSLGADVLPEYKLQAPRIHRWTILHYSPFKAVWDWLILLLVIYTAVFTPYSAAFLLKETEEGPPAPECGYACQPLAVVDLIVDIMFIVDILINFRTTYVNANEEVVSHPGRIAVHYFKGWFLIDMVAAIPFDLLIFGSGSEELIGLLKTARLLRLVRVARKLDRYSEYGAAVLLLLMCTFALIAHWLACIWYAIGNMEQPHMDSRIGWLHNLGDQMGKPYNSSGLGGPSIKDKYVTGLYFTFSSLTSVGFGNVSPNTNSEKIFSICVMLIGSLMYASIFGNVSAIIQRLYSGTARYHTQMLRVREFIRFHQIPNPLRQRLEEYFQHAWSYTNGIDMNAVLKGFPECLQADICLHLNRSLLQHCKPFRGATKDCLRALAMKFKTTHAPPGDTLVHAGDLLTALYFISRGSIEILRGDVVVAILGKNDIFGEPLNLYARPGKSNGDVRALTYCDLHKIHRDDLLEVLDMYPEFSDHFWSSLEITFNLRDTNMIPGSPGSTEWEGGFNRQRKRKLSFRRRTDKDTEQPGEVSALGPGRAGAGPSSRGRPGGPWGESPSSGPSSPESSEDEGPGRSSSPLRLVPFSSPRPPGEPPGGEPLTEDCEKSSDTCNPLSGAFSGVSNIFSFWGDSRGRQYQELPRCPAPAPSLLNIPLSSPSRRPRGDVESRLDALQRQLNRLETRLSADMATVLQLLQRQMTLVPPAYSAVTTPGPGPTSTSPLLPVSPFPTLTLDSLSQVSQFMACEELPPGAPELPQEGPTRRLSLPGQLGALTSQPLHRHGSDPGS
The conditions noted are these: superfusion with 1–2.5 μmol/L (Liu et al. 1998); cited from earlier work.

Sequence of CYP2C19 (P33261 whole entry): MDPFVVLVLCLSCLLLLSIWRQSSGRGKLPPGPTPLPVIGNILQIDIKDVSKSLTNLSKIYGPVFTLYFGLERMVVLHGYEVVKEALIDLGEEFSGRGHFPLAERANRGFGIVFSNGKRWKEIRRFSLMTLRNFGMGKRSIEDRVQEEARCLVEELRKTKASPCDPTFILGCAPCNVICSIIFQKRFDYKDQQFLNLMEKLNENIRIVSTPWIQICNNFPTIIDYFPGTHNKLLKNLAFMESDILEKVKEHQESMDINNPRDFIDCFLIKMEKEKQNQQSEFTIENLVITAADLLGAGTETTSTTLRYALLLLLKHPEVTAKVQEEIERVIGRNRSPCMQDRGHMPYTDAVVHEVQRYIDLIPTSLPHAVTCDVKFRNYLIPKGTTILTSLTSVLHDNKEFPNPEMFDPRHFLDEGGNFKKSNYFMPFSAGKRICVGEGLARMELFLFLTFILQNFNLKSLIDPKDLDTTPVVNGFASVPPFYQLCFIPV

Consider `CCS(=O)(=O)N(C)[C@H]1c2cc(C#N)ccc2OC(C)(C)[C@@H]1O` (racemic) [chromanol 293B], for which the “Maximum inhibition of beating activity, drug alone” value in data set [1] (293B alone) amounted to 50%. In [1] (dose-response curve), the “Effect on spontaneous beating rate” value is reported as “dose-dependent decrease in beating rate”. The “Reduction in beating rate” value in data set [1] (highest drug concentration tested, relative to control) was “about 50%”. Further, the Concentrations up to which IKs is selectively blocked in the data set on IKs (Busch et al. 1996) was 10 to 30 µM. Moreover, the Concentration required to achieve complete blockade of IKs in the data set on IKs (guinea pig ventricular myocytes (Busch et al. 1996)) is 100 µM.

Consider `CN(C)CCC=C1c2ccccc2CCc2ccccc21` [Amitriptyline], for which the “Interactions: cytochrome P-450 isoform 1A2, substrate or inhibitor” value at CYP1A2 is “Substrate”. The TdP result in [2] (Table 2, FDA / medical literature) is recorded as “Yes”; in data set [2] (Table 3), “Yes”. Besides, the QT result in data set [3] (Table 2, drug labeling) is reported as “Yes”; in data set [3] (Table 3) it was “Yes”. Besides, the “Interactions: cytochrome P-450 isoform 2C9, substrate or inhibitor” value on CYP2C9 was “Substrate”. Moreover, the “Interactions: cytochrome P-450 isoform 2C19, substrate or inhibitor” value at CYP2C19 was “Substrate”. Also, the “Interactions: cytochrome P-450 isoform 2D6, substrate or inhibitor” value on CYP2D6 is reported as “Substrate”.

Regarding `CN(C)CCCN1c2ccccc2CCc2ccc(Cl)cc21` [Clomipramine], the “Interactions: cytochrome P-450 isoform 1A2, substrate or inhibitor” value at CYP1A2 is “Substrate”. Besides, the “Interactions: cytochrome P-450 isoform 2C19, substrate or inhibitor” value on CYP2C19 is “Substrate”.

Regarding `Cc1cccc(CCN2CCC(C(=O)c3ccc(NS(C)(=O)=O)cc3)CC2)n1` [E-4031], the “Maximum inhibition of beating activity, drug alone” value in [1] (5–10 mnM E-4031 alone) turned out to be 50%. In the data set on IK1 (at −40 mV), the “Effect on IK1 outward (holding) current” value is reported as “without affecting; also recorded: no effect”. Further, the “Effect on IK1 inward current” value in the data set on IK1 (recorded at −120 mV) is listed as “little effect”. Moreover, the “Effect on transient outward current (Ito)” value with Ito is recorded as “no effect; also recorded: without affecting”.

In the case of `OC(Cn1cncn1)(Cn1cncn1)c1ccc(F)cc1F` [Fluconazole], at CYP2C9, the “Interactions: cytochrome P-450 isoform 2C9, substrate or inhibitor” value is “Inhibitor”. Moreover, in the data set with CYP3A, the “Interactions: cytochrome P-450 isoform 3A, substrate or inhibitor” value is “Inbibilor”.

Consider `CNCCC(Oc1ccc(C(F)(F)F)cc1)c1ccccc1` (stereo not shown) [Fluoxetine], for which the QT entry in data set [3] (Table 2, drug labeling) is listed as “Yes”; in data set [3] (Table 3), “Yes”. The “Interactions: cytochrome P-450 isoform 2C9, substrate or inhibitor” value at CYP2C9 is reported as “Substrate”. Moreover, at CYP2C19, the “Interactions: cytochrome P-450 isoform 2C19, substrate or inhibitor” value is listed as “Inhibitor”. Further, in the data set with CYP3A, the “Interactions: cytochrome P-450 isoform 3A, substrate or inhibitor” value is recorded as “Inhibitor”.

On to `O=C(CCCN1CCC(O)(c2ccc(Cl)cc2)CC1)c1ccc(F)cc1` [Haloperidol], for which the “Interactions: cytochrome P-450 isoform 1A2, substrate or inhibitor” value on CYP1A2 is listed as “Substrate”. Further, the “Interactions: cytochrome P-450 isoform 3A, substrate or inhibitor” value with CYP3A is “Substrate”. The “Interactions: cytochrome P-450 isoform 2D6, substrate or inhibitor” value is on record as “Inhibitor” on CYP2D6 (CYP2D6 inhibitor) and “Substrate” on CYP2D6 (CYP2D6 substrate).

Turning to `C/C=C/C[C@@H](C)C(=O)[C@H]1C(=O)N[C@@H](C(C)C)C(=O)N(C)CC(=O)N(C)[C@@H](CC(C)C)C(=O)N[C@@H](C(C)C)C(=O)N(C)[C@@H](CC(C)C)C(=O)N[C@@H](C)C(=O)N[C@H](C)C(=O)N(C)[C@@H](CC(C)C)C(=O)N(C)[C@@H](CC(C)C)C(=O)N(C)[C@@H](C(C)C)C(=O)N1C` [PSC-833], the “Effect on P-gp” value on P-gp is “potently and specifically inhibits”.

Regarding `CC/C(=C(\c1ccccc1)c1ccc(OCCN(C)C)cc1)c1ccccc1` [Tamoxifen], the “APD measured at 90% repolarization (APD90) after superfusion” value in [4] was found to be 332 ± 19 ms. The “Inhibition of ICa” value on L-type ICa is “almost complete inhibition; also recorded: marked inhibition”.

As to `CN(CCOc1ccc(NS(C)(=O)=O)cc1)CCc1ccc(NS(C)(=O)=O)cc1` [dofetilide], the “Effect on IKr tail current” value at IKr was “abolished”.
